Blank lines part the entries; values can stand above or below the compound they belong to.
What was measured:
Experiment in all cases: ScanMAX Kinase panel (DiscoverX)
Type in all cases: binding
FLT3(D835V) = biological target: T1, FLT3(D835V) (Homo sapiens, UniProt P36888, D835V); conditions: read-out: % Cont @ 1 μM
T1 construct: purchased DiscoverX Corp. (ScanMAX Kinase panel, commissioned)
Description: (§1) Specifically, the enzyme (kinase) selectivity of the compound of Example 7 selected from the Example compounds of the present invention was measured by commissioning DiscoverX Corp., and an experiment was performed using a panel for ScanMAX™ Kinase analysis.
(§2) In this case, the concentration of a drug treated with the enzyme was set at 1 μM in DMSO, and percent control (% control) was defined in the same manner as in the following Expression 1.
(§3) (Example compound−Positive control)/(Negative control−Positive control)×100 [Expression 1]
(§4) Wherein the positive control represents a compound having a percent control of 0%, and the negative control represents a compound having a percent control of 100% in DMSO. For the enzyme selectivity of the present invention, the compound was also judged to have activity against the corresponding enzyme when the percent control for each of the enzymes was <30% (i.e., less than 30%).

MEK3 = biological target: T2, MEK3 (Homo sapiens, UniProt P46734); conditions: read-out: % Cont @ 1 μM
T2 construct: purchased DiscoverX Corp. (ScanMAX Kinase panel, commissioned)
Description: as §1, §2, §3, §4

AAK1 = biological target: T3, AAK1 (Homo sapiens, UniProt Q2M2I8); conditions: read-out: % Cont @ 1 μM
T3 construct: purchased DiscoverX Corp. ScanMAX Kinase panel
Description: (§5) Further, to evaluate the inhibitory activity of the compound according to the present invention against more enzymes, an experiment was performed as follows. Specifically, the enzyme (kinase) selectivity of the compound of Example 64 selected from the Example compounds of the present invention was measured by commissioning DiscoverX Corp., and an experiment was performed using a panel for ScanMAX™ Kinase analysis. In this case, the concentration of a drug treated with the enzyme was set at 1 μM in DMSO, and the percent control (% control) were defined in the same manner as in the following Expression 1.
as §3
as §4, with “<35%” for “<30%”, “35%).” for “30%).”

CAMK2D = biological target: T4, CAMK2D (Homo sapiens, UniProt Q13557); conditions: read-out: % Cont @ 1 μM
T4 construct: purchased DiscoverX Corp. ScanMAX Kinase panel
Description: as §5, §3
as §4, with “<35%” for “<30%”, “35%).” for “30%).”

CAMKK1 = biological target: T5, CAMKK1 (Homo sapiens, UniProt Q8N5S9); conditions: read-out: % Cont @ 1 μM
T5 construct: purchased DiscoverX Corp. (ScanMAX Kinase panel, commissioned)
Description: as §5, §3
as §4, with “<35%” for “<30%”, “35%).” for “30%).”

CAMKK2 = biological target: T6, CAMKK2 (Homo sapiens, UniProt Q96RR4); conditions: read-out: % Cont @ 1 μM
T6 construct: purchased DiscoverX Corp. ScanMAX Kinase panel
Description: as §5, §3
as §4, with “<35%” for “<30%”, “35%).” for “30%).”

CSNK1D = biological target: T7, CSNK1D (Homo sapiens, UniProt P48730); conditions: read-out: % Cont @ 1 μM
T7 construct: purchased DiscoverX Corp. ScanMAX Kinase panel
Description: as §5, §3
as §4, with “<35%” for “<30%”, “35%).” for “30%).”

CSNK1E = biological target: T8, CSNK1E (Homo sapiens, UniProt P49674); conditions: read-out: % Cont @ 1 μM
T8 construct: purchased DiscoverX Corp. ScanMAX Kinase panel
Description: as §5, §3
as §4, with “<35%” for “<30%”, “35%).” for “30%).”

DYRK1B = biological target: T9, DYRK1B (Homo sapiens, UniProt Q9Y463); conditions: read-out: % Cont @ 1 μM
T9 construct: purchased DiscoverX Corp. ScanMAX Kinase panel
Description: as §5, §3
as §4, with “<35%” for “<30%”, “35%).” for “30%).”

FLT3(ITD) = tested on: FLT3(ITD)
Description: as §5, §3
as §4, with “<35%” for “<30%”, “35%).” for “30%).”

FLT3(ITD, D835V) = tested on: FLT3(ITD, D835V)
Description: as §5, §3
as §4, with “<35%” for “<30%”, “35%).” for “30%).”

GAK = biological target: T10, GAK (Homo sapiens, UniProt O14976); conditions: read-out: % Cont @ 1 μM
T10 construct: purchased DiscoverX Corp. ScanMAX Kinase panel
Description: as §5, §3
as §4, with “<35%” for “<30%”, “35%).” for “30%).”

[1] = biological target: T11, JAK2(JH1domain-catalytic) (Homo sapiens, UniProt O60674)
T11 construct: JAK2(JH1domain-; purchased DiscoverX Corp. (ScanMAX Kinase panel, commissioned)
Description: as §5, §3
as §4, with “<35%” for “<30%”, “35%).” for “30%).”

KIT(V559D, V654A) = biological target: T12, KIT(V559D, V654A) (Homo sapiens, UniProt P10721, V559D/V654A); conditions: read-out: % Cont @ 1 μM
T12 construct: purchased DiscoverX Corp. ScanMAX Kinase panel
Description: as §5, §3
as §4, with “<35%” for “<30%”, “35%).” for “30%).”

MAP3K2 = biological target: T13, MAP3K2 (Homo sapiens, UniProt Q9Y2U5); conditions: read-out: % Cont @ 1 μM
T13 construct: purchased DiscoverX Corp. ScanMAX Kinase panel
Description: as §5, §3
as §4, with “<35%” for “<30%”, “35%).” for “30%).”

MEK4 = biological target: T14, MEK4 (Homo sapiens, UniProt P45985); conditions: read-out: % Cont @ 1 μM
T14 construct: purchased DiscoverX Corp. ScanMAX Kinase panel
Description: as §5, §3
as §4, with “<35%” for “<30%”, “35%).” for “30%).”

PKN2 = biological target: T15, PKN2 (Homo sapiens, UniProt Q16513); conditions: read-out: % Cont @ 1 μM
T15 construct: purchased DiscoverX Corp. ScanMAX Kinase panel
Description: as §5, §3
as §4, with “<35%” for “<30%”, “35%).” for “30%).”

PRKCE = biological target: T16, PRKCE (Homo sapiens, UniProt Q02156); conditions: read-out: % Cont @ 1 μM
T16 construct: purchased DiscoverX Corp. (ScanMAX Kinase panel, commissioned)
Description: as §5, §3
as §4, with “<35%” for “<30%”, “35%).” for “30%).”

RIOK1 = biological target: T17, RIOK1 (Homo sapiens, UniProt Q9BRS2); conditions: read-out: % Cont @ 1 μM
T17 construct: purchased DiscoverX Corp. ScanMAX Kinase panel
Description: as §5, §3
as §4, with “<35%” for “<30%”, “35%).” for “30%).”

[2] = biological target: T18, RSK2(Kin.Dom.1-N-terminal) (Homo sapiens, UniProt P51812); conditions: read-out: % Cont @ 1 μM
T18 construct: RSK2(Kin.Dom.1-; purchased DiscoverX Corp. (ScanMAX Kinase panel, commissioned)
Description: as §5, §3
as §4, with “<35%” for “<30%”, “35%).” for “30%).”

[3] = biological target: T19, RSK4(Kin.Dom.1-N-terminal) (Homo sapiens, UniProt Q9UK32)
T19 construct: RSK4(Kin.Dom.1); purchased DiscoverX Corp. ScanMAX Kinase panel
Description: as §5, §3
as §4, with “<35%” for “<30%”, “35%).” for “30%).”

SBK1 = biological target: T20, SBK1 (Homo sapiens, UniProt Q52WX2); conditions: read-out: % Cont @ 1 μM
T20 construct: purchased DiscoverX Corp. ScanMAX Kinase panel
Description: as §5, §3
as §4, with “<35%” for “<30%”, “35%).” for “30%).”

SNARK = biological target: T21, SNARK (Homo sapiens, UniProt Q9H093)
T21 construct: purchased DiscoverX Corp. (ScanMAX Kinase panel, commissioned)
Description: as §5, §3
as §4, with “<35%” for “<30%”, “35%).” for “30%).”

TRKB = biological target: T22, TRKB (Homo sapiens, UniProt Q16620); conditions: read-out: % Cont @ 1 μM
T22 construct: purchased DiscoverX Corp. ScanMAX Kinase panel
Description: as §5, §3
as §4, with “<35%” for “<30%”, “35%).” for “30%).”

[4] = biological target: T23, TYK2(JH1domain-catalytic) (Homo sapiens, UniProt P29597)
T23 construct: TYK2(JH1domain-; purchased DiscoverX Corp. (ScanMAX Kinase panel, commissioned)
Description: as §5, §3
as §4, with “<35%” for “<30%”, “35%).” for “30%).”

[5] = biological target: T24, TYK2(JH2domain-pseudokinase) (Homo sapiens, UniProt P29597)
T24 construct: TYK2(JH2domain-; purchased DiscoverX Corp. ScanMAX Kinase panel
Description: as §5, §3
as §4, with “<35%” for “<30%”, “35%).” for “30%).”

ULK1 = biological target: T25, ULK1 (Homo sapiens, UniProt O75385)
T25 construct: purchased DiscoverX Corp. ScanMAX Kinase panel
Description: as §5, §3
as §4, with “<35%” for “<30%”, “35%).” for “30%).”

ULK3 = biological target: T26, ULK3 (Homo sapiens, UniProt Q6PHR2)
T26 construct: purchased DiscoverX Corp. ScanMAX Kinase panel
Description: as §5, §3
as §4, with “<35%” for “<30%”, “35%).” for “30%).”

YSK4 = biological target: T27, YSK4 (Homo sapiens, UniProt Q56UN5); conditions: read-out: % Cont @ 1 μM
T27 construct: purchased DiscoverX Corp. (ScanMAX Kinase panel, commissioned)
Description: as §5, §3
as §4, with “<35%” for “<30%”, “35%).” for “30%).”

T19 sequence (Q9UK32 73-330 limits assumed): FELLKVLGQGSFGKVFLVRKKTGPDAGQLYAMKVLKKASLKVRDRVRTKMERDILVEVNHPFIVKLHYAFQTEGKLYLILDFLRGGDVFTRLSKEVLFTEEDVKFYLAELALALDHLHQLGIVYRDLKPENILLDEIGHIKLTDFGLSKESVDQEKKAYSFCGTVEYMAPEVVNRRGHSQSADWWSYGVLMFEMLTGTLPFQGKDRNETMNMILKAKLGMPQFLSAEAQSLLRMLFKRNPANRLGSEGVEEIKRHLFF
T12 sequence (P10721 26-976 V559D/V654A): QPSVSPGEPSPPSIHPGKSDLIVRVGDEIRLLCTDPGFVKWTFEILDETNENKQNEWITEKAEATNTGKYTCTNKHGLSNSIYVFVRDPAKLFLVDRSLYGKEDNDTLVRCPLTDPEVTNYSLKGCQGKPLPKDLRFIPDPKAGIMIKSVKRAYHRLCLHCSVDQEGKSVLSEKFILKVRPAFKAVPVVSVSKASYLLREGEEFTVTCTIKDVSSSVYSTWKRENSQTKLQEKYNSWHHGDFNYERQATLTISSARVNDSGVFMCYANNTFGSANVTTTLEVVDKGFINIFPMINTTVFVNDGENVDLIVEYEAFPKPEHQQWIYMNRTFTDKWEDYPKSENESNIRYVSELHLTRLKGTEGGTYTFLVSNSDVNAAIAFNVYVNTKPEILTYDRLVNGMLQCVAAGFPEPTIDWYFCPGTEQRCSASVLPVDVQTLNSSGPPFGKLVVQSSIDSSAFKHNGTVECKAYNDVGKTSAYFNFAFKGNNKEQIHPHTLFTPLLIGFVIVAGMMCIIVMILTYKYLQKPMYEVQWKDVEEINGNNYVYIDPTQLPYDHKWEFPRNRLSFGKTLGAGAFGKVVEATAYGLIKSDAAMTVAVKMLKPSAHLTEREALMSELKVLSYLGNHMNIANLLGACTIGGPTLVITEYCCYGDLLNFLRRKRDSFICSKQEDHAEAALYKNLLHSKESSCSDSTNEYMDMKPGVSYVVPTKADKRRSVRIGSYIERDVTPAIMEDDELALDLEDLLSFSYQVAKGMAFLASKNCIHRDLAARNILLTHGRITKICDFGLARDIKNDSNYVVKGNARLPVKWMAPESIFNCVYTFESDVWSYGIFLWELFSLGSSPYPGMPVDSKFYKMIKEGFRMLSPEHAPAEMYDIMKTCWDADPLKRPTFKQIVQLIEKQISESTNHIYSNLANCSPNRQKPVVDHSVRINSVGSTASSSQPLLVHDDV
T5 sequence (Q8N5S9 whole entry): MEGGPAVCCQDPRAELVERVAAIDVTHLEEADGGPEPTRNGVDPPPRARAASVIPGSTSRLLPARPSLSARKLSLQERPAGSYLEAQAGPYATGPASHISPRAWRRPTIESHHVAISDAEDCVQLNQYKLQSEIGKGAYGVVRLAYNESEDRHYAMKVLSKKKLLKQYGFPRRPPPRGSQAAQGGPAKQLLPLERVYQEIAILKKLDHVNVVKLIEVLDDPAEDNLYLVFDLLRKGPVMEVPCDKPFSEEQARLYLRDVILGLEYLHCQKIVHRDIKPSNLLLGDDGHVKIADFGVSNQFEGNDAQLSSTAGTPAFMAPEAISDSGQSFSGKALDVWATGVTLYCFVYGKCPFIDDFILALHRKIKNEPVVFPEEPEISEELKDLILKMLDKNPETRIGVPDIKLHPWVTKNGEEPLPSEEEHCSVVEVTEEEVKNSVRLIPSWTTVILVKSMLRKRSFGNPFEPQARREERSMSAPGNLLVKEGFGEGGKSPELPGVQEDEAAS
T22 sequence (Q16620 32-822): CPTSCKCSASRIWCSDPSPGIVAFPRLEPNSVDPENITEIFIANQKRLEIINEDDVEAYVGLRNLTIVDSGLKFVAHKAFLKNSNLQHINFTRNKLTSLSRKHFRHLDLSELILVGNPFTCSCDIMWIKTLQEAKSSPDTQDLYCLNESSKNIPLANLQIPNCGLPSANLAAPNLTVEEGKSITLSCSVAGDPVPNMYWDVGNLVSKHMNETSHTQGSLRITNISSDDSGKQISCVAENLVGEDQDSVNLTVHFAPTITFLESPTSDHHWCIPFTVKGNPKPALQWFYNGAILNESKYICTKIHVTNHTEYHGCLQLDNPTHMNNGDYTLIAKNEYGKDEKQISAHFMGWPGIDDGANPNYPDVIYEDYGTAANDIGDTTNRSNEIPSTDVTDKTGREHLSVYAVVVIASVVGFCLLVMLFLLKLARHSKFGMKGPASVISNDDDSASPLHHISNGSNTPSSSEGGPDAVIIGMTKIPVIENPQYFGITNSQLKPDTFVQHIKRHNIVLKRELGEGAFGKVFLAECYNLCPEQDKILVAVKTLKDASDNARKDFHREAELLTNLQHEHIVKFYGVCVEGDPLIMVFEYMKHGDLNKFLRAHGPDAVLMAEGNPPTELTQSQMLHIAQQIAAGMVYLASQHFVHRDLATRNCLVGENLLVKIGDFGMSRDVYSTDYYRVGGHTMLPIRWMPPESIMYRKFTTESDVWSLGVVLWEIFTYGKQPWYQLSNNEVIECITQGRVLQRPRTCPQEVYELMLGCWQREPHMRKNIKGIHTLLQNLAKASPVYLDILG
T14 sequence (P45985 whole entry): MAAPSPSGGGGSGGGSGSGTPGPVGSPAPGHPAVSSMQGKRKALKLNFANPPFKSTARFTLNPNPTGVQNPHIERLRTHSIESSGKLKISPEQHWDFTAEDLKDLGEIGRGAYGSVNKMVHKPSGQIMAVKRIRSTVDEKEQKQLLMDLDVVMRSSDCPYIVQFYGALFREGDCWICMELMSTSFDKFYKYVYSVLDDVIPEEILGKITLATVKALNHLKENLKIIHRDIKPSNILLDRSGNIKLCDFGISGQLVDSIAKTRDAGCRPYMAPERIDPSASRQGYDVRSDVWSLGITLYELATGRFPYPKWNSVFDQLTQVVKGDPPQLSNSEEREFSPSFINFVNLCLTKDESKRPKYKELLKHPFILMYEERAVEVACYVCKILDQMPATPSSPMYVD
T21 sequence (Q9H093 whole entry): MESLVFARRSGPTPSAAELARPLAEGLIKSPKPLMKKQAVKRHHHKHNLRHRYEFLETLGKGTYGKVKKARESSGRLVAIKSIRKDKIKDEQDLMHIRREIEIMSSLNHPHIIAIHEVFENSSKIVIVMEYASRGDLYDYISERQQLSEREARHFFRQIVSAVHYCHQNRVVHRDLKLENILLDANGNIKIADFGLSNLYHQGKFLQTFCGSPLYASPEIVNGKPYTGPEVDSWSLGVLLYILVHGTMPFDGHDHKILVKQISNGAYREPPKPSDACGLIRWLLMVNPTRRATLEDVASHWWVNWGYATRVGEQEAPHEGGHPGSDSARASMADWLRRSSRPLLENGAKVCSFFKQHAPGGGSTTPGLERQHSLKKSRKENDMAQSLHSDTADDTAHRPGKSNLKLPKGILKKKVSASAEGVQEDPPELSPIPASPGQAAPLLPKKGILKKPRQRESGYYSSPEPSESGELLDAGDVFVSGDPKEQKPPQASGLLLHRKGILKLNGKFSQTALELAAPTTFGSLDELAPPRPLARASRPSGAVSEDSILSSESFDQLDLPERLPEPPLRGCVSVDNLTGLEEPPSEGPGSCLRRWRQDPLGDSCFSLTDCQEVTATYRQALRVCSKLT
T17 sequence (Q9BRS2 whole entry): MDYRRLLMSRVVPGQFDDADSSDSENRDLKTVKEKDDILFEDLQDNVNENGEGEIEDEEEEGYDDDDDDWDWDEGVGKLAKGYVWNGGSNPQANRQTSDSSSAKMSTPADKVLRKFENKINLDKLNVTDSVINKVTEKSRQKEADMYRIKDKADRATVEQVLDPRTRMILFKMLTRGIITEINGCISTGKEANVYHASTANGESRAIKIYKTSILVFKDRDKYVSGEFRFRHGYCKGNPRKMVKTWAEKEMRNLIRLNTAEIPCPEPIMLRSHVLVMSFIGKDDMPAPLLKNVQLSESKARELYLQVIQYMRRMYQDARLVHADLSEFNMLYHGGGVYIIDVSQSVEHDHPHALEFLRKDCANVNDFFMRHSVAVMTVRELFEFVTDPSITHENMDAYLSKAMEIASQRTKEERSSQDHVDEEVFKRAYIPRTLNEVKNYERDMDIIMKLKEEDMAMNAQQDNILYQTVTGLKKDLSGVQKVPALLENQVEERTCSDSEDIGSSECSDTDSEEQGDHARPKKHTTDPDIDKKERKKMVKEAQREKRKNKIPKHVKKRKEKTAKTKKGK
T4 sequence (Q13557 whole entry): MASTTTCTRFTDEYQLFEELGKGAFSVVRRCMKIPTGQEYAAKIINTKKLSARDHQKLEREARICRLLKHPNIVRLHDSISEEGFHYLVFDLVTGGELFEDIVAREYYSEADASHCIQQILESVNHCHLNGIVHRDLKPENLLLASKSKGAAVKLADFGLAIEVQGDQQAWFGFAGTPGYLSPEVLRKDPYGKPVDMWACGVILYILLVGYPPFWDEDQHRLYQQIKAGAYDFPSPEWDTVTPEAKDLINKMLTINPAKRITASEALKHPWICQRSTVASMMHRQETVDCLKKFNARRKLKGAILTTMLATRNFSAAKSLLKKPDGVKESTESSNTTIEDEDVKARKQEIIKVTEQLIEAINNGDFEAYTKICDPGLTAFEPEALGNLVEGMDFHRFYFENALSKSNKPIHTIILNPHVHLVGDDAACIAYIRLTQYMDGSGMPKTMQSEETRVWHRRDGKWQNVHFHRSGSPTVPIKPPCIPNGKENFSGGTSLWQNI
T20 sequence (Q52WX2 whole entry): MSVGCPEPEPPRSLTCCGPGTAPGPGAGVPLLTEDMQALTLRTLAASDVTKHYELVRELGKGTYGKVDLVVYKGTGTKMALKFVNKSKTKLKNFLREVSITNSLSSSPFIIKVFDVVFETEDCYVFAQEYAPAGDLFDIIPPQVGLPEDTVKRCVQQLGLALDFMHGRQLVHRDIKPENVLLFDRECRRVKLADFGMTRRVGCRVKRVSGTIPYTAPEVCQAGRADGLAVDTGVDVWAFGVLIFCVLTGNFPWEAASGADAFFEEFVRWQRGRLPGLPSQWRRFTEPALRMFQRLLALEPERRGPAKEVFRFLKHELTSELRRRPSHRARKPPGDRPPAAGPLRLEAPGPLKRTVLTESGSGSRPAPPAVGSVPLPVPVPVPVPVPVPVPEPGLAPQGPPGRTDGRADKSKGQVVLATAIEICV

remaining binding at 1 µM (FLT3(D835V)): 5.6%
remaining binding at 1 µM (MEK3): 18%
Structure (SMILES): COc1cc(-c2ccnn2C)ccc1Nc1nc(NC2CCCCC2)c2c(C#N)c[nH]c2n1 [Example 7, 4-(cyclohexylamino)-2-((2-methoxy-4-(1-methyl-1H-pyrazol-5-yl)phenyl)amino)-7H-pyrrolo[2,3-d] pyrimidine-5-carbonitrile]

remaining binding at 1 µM (AAK1): 4.4%
percent of control at 1 µM (CAMK2D): 12%
remaining binding at 1 µM (CAMKK1): 1.6%
remaining binding at 1 µM (CAMKK2): 2.2%
percent of control at 1 µM (CSNK1D): 19%
remaining binding at 1 µM (CSNK1E): 24%
remaining binding at 1 µM (DYRK1B): 28%
% Cont @ 1 μM (FLT3(ITD)): 17%
% Cont @ 1 μM (FLT3(ITD, D835V)): 1.2%
remaining binding at 1 µM (GAK): 4.4%
% Cont @ 1 μM [1]: 0%
remaining binding at 1 µM (KIT(V559D, V654A)): 14%
remaining binding at 1 µM (MAP3K2): 13%
remaining binding at 1 µM (MEK4): 27%
remaining binding at 1 µM (PKN2): 28%
percent of control binding at 1 µM (PRKCE): 1.4%
remaining binding at 1 µM (RIOK1): 27%
remaining binding at 1 µM [2]: 1.9%
% Cont @ 1 μM [3]: 3.7%
remaining binding at 1 µM (SBK1): 5.7%
% Cont @ 1 μM (SNARK): 0%
remaining binding at 1 µM (TRKB): 3.9%
% Cont @ 1 μM [4]: 1.7%
% Cont @ 1 μM [5]: 7.2%
% Cont @ 1 μM (ULK1): 3.1%
% Cont @ 1 μM (ULK3): 2.6%
percent of control binding at 1 µM (YSK4): 0.3%
Structure (SMILES): COc1cc(N2CCCC2=O)ccc1Nc1cc(NC2CCCCC2)c2c(C#N)c[nH]c2n1 [Example 64, 4-(cyclohexylamino)-6-((2-methoxy-4-(2-oxopyrrolidin-1-yl)phenyl)amino)-1H-pyrrolo[2,3-b] pyridine-3-carbonitrile]
